Laboratory results: PMC6245648 (Chemical research in toxicology, 2016)
Like-named read-outs stand apart in the source and are kept apart here.

Experiments:
Format in all cases: cell-based
[1] = molecular target: T1, mitochondrial complex I (NADH: ubiquinone oxidoreductase) (Rattus norvegicus, UniProt A6K8N6+P03889+Q641Y2); conditions: read-out: % inhibition at 10 μM
[2] = molecular target: T1, mitochondrial complex I (NADH: ubiquinone oxidoreductase); conditions: read-out: % inhibition at 10 μM; remark: listed apart in the source
[3] = molecular target: T1, mitochondrial complex I (NADH: ubiquinone oxidoreductase); conditions: read-out: % inhibition at 10 μM; remark: listed apart in the source
[4] = molecular target: T1, mitochondrial complex I (NADH: ubiquinone oxidoreductase); conditions: read-out: % inhibition at 200 μM
[5] = molecular target: T1, mitochondrial complex I (NADH: ubiquinone oxidoreductase); conditions: read-out: % inhibition at 10 μM; remark: listed apart in the source
[6] = molecular target: T1, mitochondrial complex I (NADH: ubiquinone oxidoreductase); conditions: read-out: % inhibition at 10 μM; remark: listed apart in the source

CCN1C(=Cc2ccc3ccccc3[n+]2CC)C=Cc2ccccc21 [B, 2,2’-cyanine]
inhibition at 10 µM [1]: 70.8%

CCCN1C(=CC=CC=Cc2sc3ccccc3[n+]2CCC)Sc2ccccc21 [F, DiSC3(5)]
inhibition at 10 µM [2]: 83%

CCN1C=CC(=Cc2cc[n+](CC)c3ccccc23)c2ccccc21 [C, 4,4’-cyanine]
inhibition at 10 µM [3]: 60.8%

C[n+]1ccc(-c2ccccc2)cc1 [A, 1-methyl-4-phenylpyridinium]
inhibition at 200 µM [4]: 12.5%

C=C(C)[C@H]1Cc2c(ccc3c2O[C@@H]2COc4cc(OC)c(OC)cc4[C@@H]2C3=O)O1 [H, rotenone]
inhibition at 10 µM [5]: 88%

CCCN1C(=CC=Cc2sc3ccccc3[n+]2CCC)Sc2ccccc21 [E, DiSC3(3)]
inhibition at 10 µM [2]: 83%

CCN1C(=CC=Cc2oc3ccccc3[n+]2CC)Oc2ccccc21 [D, DiOC2(3)]
inhibition at 10 µM [6]: 79%
